Here are results for 36 compounds from US8049037B2, “Sphingosine-1-phosphate (S1P) receptor antagonists and methods for use thereof” (Allergan, Inc., priority 2008, dated 2011).

The experiment deals with T1, human S1P3 receptor (Homo sapiens, UniProt Q99500).
T1 construct: expressed in transfected cells
Put plainly: S1P3 FLIPR Ca2+ assay in T24 cells stably expressing the human S1P3 receptor. It is filed as cell-based. The conditions noted are these: for IC50: tested over 0.61 nM to 10,000 nM, read-out: IC50, activity potency human S1P3 receptor from FLIPR. As for the experimental part:
The compounds of the invention were tested for S1P3 activity using the Flipr assay. The compounds may be assessed for ability to activate or block activation of the human S1P3 receptor in T24 cells stably expressing the human S1P3 receptor. Ten thousand cells/well are plated into 384-well poly-D-lysine coated plates one day prior to use. The growth media for the S1P3 receptor expressing cell line McCoy's 5A medium supplemented with 10% charcoal-treated fetal bovine serum (FBS), 1% antibiotic-antimycotic and 400 μg/mL genetecin. On the day of the experiment, the cells are washed twice Hank's Balanced Salt Solution supplemented with 20 mM HEPES (HBSS/Hepes buffer). The cells are then dye loaded with 2 μM Fluo-4 diluted in the HBSS/Hepes buffer with 1.25 mM Probenecid and incubated at 37° C. for 40 minutes. Extracellular dye is removed by washing the cell plates four times prior to placing the plates in the FLIPR (Fluorometric Imaging Plate Reader, Molecular Devices). Ligands are diluted in HBSS/Hepes buffer and prepared in 384-well microplates. The positive control, Sphingosine-1-phosphate (SIP), is diluted in HBSS/Hepes buffer with 4 mg/mL fatty acid free bovine serum albumin. The FLIPR transfers 12.5 μL from the ligand microplate to the cell plate and takes fluorescent measurements for 75 seconds, taking readings every second, and then for 2.5 minutes, taking readings every 10 seconds. Drugs are tested over the concentration range of 0.61 nM to 10,000 nM. Data for Ca^+2 responses are obtained in arbitrary fluorescence units and not translated into Ca^+2 concentrations. IC50 values are determined through a […] analysis using the Levenburg Marquardt algorithm.

T1 sequence (Q99500 whole entry): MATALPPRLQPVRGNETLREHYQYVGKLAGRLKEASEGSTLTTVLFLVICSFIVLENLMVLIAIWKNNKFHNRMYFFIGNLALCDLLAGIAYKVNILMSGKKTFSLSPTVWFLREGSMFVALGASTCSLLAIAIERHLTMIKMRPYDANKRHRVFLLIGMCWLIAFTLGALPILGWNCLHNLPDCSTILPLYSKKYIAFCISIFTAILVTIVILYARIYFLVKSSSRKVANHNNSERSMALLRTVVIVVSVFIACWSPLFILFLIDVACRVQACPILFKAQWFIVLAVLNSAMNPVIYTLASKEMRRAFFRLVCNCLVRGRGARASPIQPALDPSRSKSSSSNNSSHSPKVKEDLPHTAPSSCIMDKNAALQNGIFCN

Usually IC50 stands for the concentration that gives 50% inhibition. As to `O=C(NC(Nc1ccc(Cl)cc1)C(Br)(Br)Br)c1ccc(Br)cc1` (stereo not drawn) [4-bromo-N-(2,2,2-tribromo-1-(4-chlorophenylamino)ethyl)benzamide], the “% Antagonism, human S1P3 receptor from FLIPR” value (from here on “% Antagonism”) was found to be 100% and the IC50 is 98 nM.

For `Cc1cccc(C)c1NC(NC(=O)c1ccco1)C(Cl)(Cl)Cl` (stereo not drawn) [N-{2,2,2-trichloro-1-[(2,6-dimethylphenyl)amino]ethyl}-2-furamide], the “% Antagonism” value was 41% and the IC50 was found to be 1470 nM.

For `O=C(NC(Nc1ccccc1C(F)(F)F)C(Cl)(Cl)Cl)c1ccco1` (stereo not drawn), the “% Antagonism” value amounted to 56% and the IC50 stood at 1410 nM.

For the compound `O=C(NC(Nc1ccc(Cl)cc1)C(Cl)(Cl)Cl)c1cc(Br)co1` (stereo not drawn) [4-bromo-N-(2,2,2-trichloro-1-(4-chlorophenylamino)ethyl)furan-2-carboxamide], the “% Antagonism” value amounted to 90% and the IC50 worked out at 9.5 nM.

As to `O=C(NC(Nc1ccc(Cl)cc1)C(Cl)(Cl)Cl)c1ccc(Br)cn1` (stereo not drawn) [5-bromo-N-(2,2,2-trichloro-1-(4-chlorophenylamino)ethyl)picolinamide], the “% Antagonism” value is 99% and the IC50 was 2 nM.

As to `O=C(NC(Nc1ccc(Cl)cc1)C(Cl)(Cl)Cl)c1ccc(Cl)cn1` (stereo not drawn) [5-Chloro-N-(2,2,2-trichloro-1-(4-chlorophenylamino)ethyl)picolinamide], the “% Antagonism” value came out at 98% and the IC50 came to 6.3 nM.

Turning to `Cc1ccc(NC(NC(=O)c2ccco2)C(Cl)(Cl)Cl)c(F)c1` (stereo not drawn) [N-{2,2,2-trichloro-1-[(2-fluoro-4-methylphenyl)amino]ethyl}-2-furamide], the “% Antagonism” value turned out to be 102% and the IC50 stood at 1400 nM.

Consider `O=C(NC(Nc1ccc([N+](=O)[O-])cc1)C(Cl)(Cl)Cl)c1ccc(Cl)cc1` (stereo not drawn), for which the “% Antagonism” value worked out at 93% and the IC50 is 1370 nM.

For `O=C(NC(Nc1ccc(Cl)cc1)C(F)(F)Cl)c1ccc(Br)cn1` (stereo not drawn) [5-Bromo-N-(2-chloro-1-(4-chlorophenylamino)-2,2-difluoroethyl)picolinamide], the “% Antagonism” value is 99% and the IC50 was 1650 nM.

Regarding `COc1ccc(NC(NC(=O)c2ccc(Br)cc2)C(Cl)(Cl)Cl)cc1` (stereo not drawn), the “% Antagonism” value is recorded as 94% and the IC50 was 492 nM.

For `O=C(NC(Nc1ccccc1F)C(Cl)(Cl)Cl)c1ccco1` (stereo not drawn) [N-{2,2,2-trichloro-1-[(2-fluorophenyl)amino]ethyl}-2-furamide], the “% Antagonism” value was determined as 98% and the IC50 turned out to be 1100 nM.

Consider `O=C(NC(Nc1ccc(Cl)cc1)C(Cl)(Cl)Cl)c1ccc(Br)o1` (stereo not drawn) [5-bromo-furan-2-carboxylic acid (2,2,2-trichloro-1-(4-chloro-phenylamino)-ethyl)-amide], for which the “% Antagonism” value was found to be 95% and the IC50 was determined as 711 nM.

As to `O=C(NC(Nc1ccc(Br)cc1)C(Cl)(Cl)Cl)c1ccc([N+](=O)[O-])cc1` (stereo not drawn), the “% Antagonism” value stood at 91% and the IC50 was determined as 1450 nM.

For `O=C(NC(Nc1ccc(Cl)cc1)C(F)(F)F)c1ccc(Br)cn1` (stereo not drawn) [5-Bromo-N-(1-(4-chlorophenylamino)-2,2,2-trifluoroethyl)picolinamide], the “% Antagonism” value amounted to 99% and the IC50 turned out to be 4.7 nM.

In the case of `O=C(NC(Nc1ccc(Cl)cc1)C(Cl)(Cl)Cl)c1cccc(Cl)c1` (stereo not drawn), the “% Antagonism” value is on record as 94% and the IC50 amounted to 1520 nM.

Take `O=C(NC(Nc1ccc(Cl)cc1)C(Cl)(Cl)Cl)c1ccc(Br)cn1` (single isomer, unassigned; (-)) [(−)-5-bromo-N-(2,2,2-trichloro-1-(4-chlorophenylamino)ethyl)picolinamide]: the “% Antagonism” value is 99% and the IC50 came to 1.4 nM.

With `O=C(NC(Nc1ccc(Cl)c(F)c1)C(Cl)(Cl)Cl)c1ccc(Br)cc1` (stereo not drawn) [4-bromo-N-[2,2,2-trichloro-1-(4-chloro-3-fluoro-phenylamino)-ethyl]-benzamide], the “% Antagonism” value worked out at 95% and the IC50 stood at 110 nM.

Turning to `Cc1cc(NC(NC(=O)c2ccco2)C(Cl)(Cl)Cl)ccc1F` (stereo not drawn) [N-{2,2,2-trichloro-1-[(4-fluoro-3-methylphenyl)amino]ethyl}-2-furamide], the “% Antagonism” value came to 99% and the IC50 turned out to be 430 nM.

On to `O=C(NC(Nc1ccccc1)C(Cl)(Cl)Cl)c1ccc(Br)cc1` (stereo not drawn), for which the “% Antagonism” value stood at 97% and the IC50 came out at 148 nM.

Take `O=C(NC(Nc1ccc(Br)cc1)C(Cl)(Cl)Cl)c1ccco1` (stereo not drawn): the “% Antagonism” value was 98% and the IC50 was 365 nM.

For `COc1ccc(C(=O)NC(Nc2ccc(C)cc2)C(Cl)(Cl)Cl)cc1` (stereo not drawn), the “% Antagonism” value was 98% and the IC50 was found to be 466 nM.

For the compound `Cc1ccc(NC(NC(=O)c2ccco2)C(Cl)(Cl)Cl)cc1` (stereo not drawn) [Furan-2-carboxylic acid (2,2,2-trichloro-1-p-tolylamino-ethyl)-amide], the “% Antagonism” value came out at 100% and the IC50 is 454 nM.

On to `O=C(NC(Nc1cccc(F)c1)C(Cl)(Cl)Cl)c1ccco1` (stereo not drawn) [N-{2,2,2-trichloro-1-[(3-fluorophenyl)amino]ethyl}-2-furamide], for which the “% Antagonism” value is 100% and the IC50 amounted to 363 nM.

Take `COc1ccc(C(=O)NC(Nc2ccc(Cl)cc2)C(Cl)(Cl)Cl)cc1` (stereo not drawn): the “% Antagonism” value is on record as 96% and the IC50 stood at 278 nM.

On to `O=C(NC(Nc1ccc(Cl)cc1)C(Cl)(Cl)Cl)c1ccc(Br)cc1` (stereo not drawn) [4-bromo-N-(2,2,2-trichloro-1-(4-chlorophenylamino)ethyl)benzamide], for which the “% Antagonism” value is recorded as 96% and the IC50 was determined as 28 nM.

In the case of `O=C(NC(Nc1ccc(Cl)cc1)C(Cl)(Cl)Cl)c1ccc(Br)nc1` (stereo not drawn) [6-bromo-N-(2,2,2-trichloro-1-(4-chlorophenylamino)ethyl)nicotinamide], the “% Antagonism” value is listed as 97% and the IC50 was 245 nM.

Take `O=C(NC(Nc1ccc(Cl)cc1)C(Cl)(Cl)Cl)c1ccc(Cl)cc1` (stereo not drawn) [4-chloro-N-(2,2,2-trichloro-1-(4-chlorophenylamino)ethyl)benzamide]: the “% Antagonism” value came out at 100% and the IC50 amounted to 145 nM.

Turning to `O=C(NC(Nc1ccc(Cl)cc1)C(Cl)(Cl)Cl)c1ccc(F)c(F)c1` (stereo not drawn) [3,4-difluoro-N-(2,2,2-trichloro-1-(4-chlorophenylamino)ethyl)benzamide], the “% Antagonism” value is 95% and the IC50 came out at 256 nM.

As for `O=C(NC(Nc1ccc(Cl)cc1)C(Cl)(Cl)Cl)c1ccc(Br)cc1` (single isomer, unassigned; (-)) [(−)-4-bromo-N-(2,2,2-trichloro-1-(4-chlorophenylamino)ethyl)benzamide], the “% Antagonism” value was 96% and the concentration for half-maximal inhibition (IC50) turned out to be 16 nM.

With `O=C(NC(Nc1ccc(F)cc1)C(Cl)(Cl)Cl)c1ccco1` (stereo not drawn) [N-{2,2,2-trichloro-1-[(4-fluorophenyl)amino]ethyl}-2-furamide], the “% Antagonism” value is 99% and the IC50 is 498 nM.

On to `Cc1ccc(NC(NC(=O)c2ccc(Br)cc2)C(Cl)(Cl)Cl)cc1` (stereo not drawn) [4-bromo-N-(2,2,2-trichloro-1-(p-tolylamino)ethyl)benzamide], for which the “% Antagonism” value was found to be 100% and the IC50 is 73 nM.

As to `O=C(NC(Nc1ccc(Cl)cc1)C(Cl)(Cl)Cl)c1ccco1` (stereo not drawn) [N-{2,2,2-trichloro-1-[(4-chlorophenyl)amino]ethyl}-2-furamide], the “% Antagonism” value worked out at 98% and the IC50 was found to be 270 nM.

As to `O=C(NC(Nc1ccc(Cl)c(F)c1)C(Cl)(Cl)Cl)c1ccco1` (stereo not drawn) [Furan-2-carboxylic acid (2,2,2-trichloro-1-(4-chloro-3-fluoro-phenylamino)-ethyl)-amide], the “% Antagonism” value was 98% and the IC50 is 291 nM.

Consider `Cc1ccc(C(=O)NC(Nc2ccc(Cl)cc2)C(Br)(Br)Br)cc1` (stereo not drawn), for which the “% Antagonism” value is 76% and the IC50 was 1140 nM.

Turning to `O=C(NC(Nc1ccc(Cl)cc1)C(F)(F)F)c1ccc(Br)cc1` (stereo not drawn) [4-bromo-N-[1-(4-chlorophenylamino)-2,2,2-trifluoro-ethyl]-benzamide], the “% Antagonism” value is reported as 100% and the half-maximal inhibitory concentration (IC50) turned out to be 2990 nM.

Turning to `Cc1cc(F)ccc1NC(NC(=O)c1ccco1)C(Cl)(Cl)Cl` (stereo not drawn) [N-{2,2,2-trichloro-1-[(4-fluoro-2-methylphenyl)amino]ethyl}-2-furamide], the “% Antagonism” value turned out to be 95% and the IC50 was 1180 nM.
